From the PolyMetriX glass transition set
± gives the standard deviation of the reports.

| Structure (SMILES) | glass transition temperature [°C] |
| --- | --- |
| *c1ccc(Oc2ccc(C(C)(C)c3cccc(C(C)(C)c4ccc(Oc5ccc(-n6c(=O)c7cc8c(=O)n(*)c(=O)c8cc7c6=O)cc5)cc4)c3)cc2)cc1 (repeat unit) | 249.47 |
| *Oc1c(C)cc(C2(c3cc(C)c(OC(=O)c4ccc(C(*)=O)cc4)c(C)c3)CCC3CCCCC3C2)cc1C (repeat unit) | 287.00 |
| *Oc1ccc(C(C)(C)c2ccc(OC(=O)c3ccccc3-c3ccccc3C(*)=O)cc2)cc1 (repeat unit) | 161.00 |
| *C(=O)Nc1ccc(NC(=O)c2ccc(N3C(=O)c4ccc(*)cc4C3=O)cc2)cc1 (repeat unit) | 297.50 |
| *Cc1ccc(CSS*)cc1 (repeat unit) | 23.00 |
| *c1ccc(NC(=O)c2cccc(C(=O)Nc3ccc(-n4c(=O)c5cc6c(=O)n(*)c(=O)c6cc5c4=O)cc3)c2)cc1 (repeat unit) | 296.00 |
| *CCCCCCCCOc1c(OC)cc(/C=C2\CCC/C(=C\c3cc(OC)c(O*)c(OC)c3)C2=O)cc1OC (repeat unit) | 62.00 |
| *COC(=O)Nc1ccc(Cc2ccc(NC(=O)OCc3ccc(*)o3)cc2)cc1 (repeat unit) | 81.00 |
| *C(=O)Nc1c(CC)cc(Cc2cc(CC)c(NC(=O)c3ccc4c(c3)C(=O)N(c3ccc(/N=N/c5ccc(C)cc5)c(N5C(=O)c6ccc(*)cc6C5=O)c3)C4=O)c(CC)c2)cc1CC (repeat unit) | 269.00 |
| *C(=O)OCC(C)(C)COC(=O)N1CCN(*)CC1 (repeat unit) | 70.00 |
| *c1ccc(-c2ccc(N(*)c3ccc(C(F)(F)F)cc3)cc2)cc1 (repeat unit) | 225.00 |
| *CCCCCC(=O)S* (repeat unit) | 19.00 |
| *c1ccc(Oc2ccc(-c3c(-c4ccccc4)nc4ccc(Oc5ccc6nc(-c7ccccc7)c(*)c(-c7ccccc7)c6c5)cc4c3-c3ccccc3)cc2)cc1 (repeat unit) | 252.50 |
| *O[Si](C)(C)c1ccc([Si](C)(C)Oc2c(C)cc(-c3cc(C)c(*)c(C)c3)cc2C)cc1 (repeat unit) | 67.00 |
| *C(=O)OCCCCCCCCCCCCOC(=O)c1ccc(N2C(=O)c3ccc(*)cc3C2=O)cc1 (repeat unit) | 47.00 |
| *=Nc1ccc(Cc2ccc(NC(=*)c3ccccc3)cc2)cc1 (repeat unit) | 158.00 |
| *CC(*)c1ccc([SiH](C)C)cc1 (repeat unit) | 105.00 |
| *CC#CC#CCOC(=O)c1ccc(C(=O)O*)cc1 (repeat unit) | 143.00 |
| *Oc1ccccc1S(=O)(=O)c1ccc(*)cc1 (repeat unit) | 221.00 |
| *O[Si](C)(C)c1ccc2ccc([Si](*)(C)C)cc2c1 (repeat unit) | 26.00 |
| *OC(=O)CNC(=O)CNC(=O)CCCCCCCCC(=O)NCC(=O)NCC(=O)OC1COC2C(*)COC12 (repeat unit) | 47.00 |

| Structure (SMILES) | glass transition temperature [°C] |
| --- | --- |
| *CCOCCOCCOc1ccc(/C=C/c2ccc(/C=C/c3ccc(O*)c4ccccc34)cc2)c2ccccc12 (repeat unit) | 83.50 |
| *CCOCCOC(=O)c1cccc(C(=O)O*)c1 (repeat unit) | 16.00 |
| *c1cc(N2C(=O)c3ccc(P(=O)(c4ccccc4)c4ccc5c(c4)C(=O)N(*)C5=O)cc3C2=O)cc(C(F)(F)F)c1 (repeat unit) | 317.00 |
| *Oc1cc(OC(=O)c2ccc(OCCCCC)cc2)c(OC(=O)CCCC(*)=O)cc1OC(=O)c1ccc(OCCCCC)cc1 (repeat unit) | 44.00 |
| *CCCCCOC(=O)c1cccc(C(=O)O*)c1 (repeat unit) | 7.00 |
| *CC(*)c1cc(C)cc(C)c1 (repeat unit) | 112.00 |
| *Oc1cc(OC(=O)c2ccc(OCCCC)cc2)c(OC(=O)C(C)(C)CCC(*)=O)cc1OC(=O)c1ccc(OCCCC)cc1 (repeat unit) | 61.00 |
| *c1cc(C(=O)OCC)cc(N2C(=O)CC(C3Cc4ccccc4C4C(=O)N(*)C(=O)C43)C2=O)c1 (repeat unit) | 254.00 |
| *Oc1ccc(P(C)(=O)c2ccc(Oc3ccc(C(c4ccccc4)(c4ccc(*)cc4)C(F)(F)F)cc3)cc2)cc1 (repeat unit) | 229.00 |
| */C(C#N)=C(\C#N)n1c(=O)c2cc3c(=O)n(*)c(=O)c3cc2c1=O (repeat unit) | 210.00 |
| *c1cccc(C(=O)Nc2ccc(Oc3ccc(S(=O)(=O)c4ccc(Oc5ccc(NC(=O)c6cccc(N7C(=O)c8ccc(-c9ccc%10c(c9)C(=O)N(*)C%10=O)cc8C7=O)c6)cc5)cc4)cc3)cc2)c1 (repeat unit) | 258.00 |
| *O[Si](C)(C)Oc1ccc(C(C)(C)c2ccc(*)cc2)cc1 (repeat unit) | 45.00 |
| *c1ccc(Oc2ccc(-c3cc(-c4ccccc4)c4cc(Oc5ccc6nc(*)cc(-c7ccccc7)c6c5)ccc4n3)cc2)cc1 (repeat unit) | 266.00 |
| *c1ccc2c(c1)C(=O)N(c1ccc(S(=O)(=O)c3ccc(S(=O)(=O)c4ccc(S(=O)(=O)c5ccc(N6C(=O)c7ccc(C(*)(C(F)(F)F)C(F)(F)F)cc7C6=O)cc5)cc4)cc3)cc1)C2=O (repeat unit) | 327.00 |
| *CCN(CCOC(=O)NCC1(C)CC(NC(=O)O*)CC(C)(C)C1)c1ccc(C=C(C#N)C#N)cc1 (repeat unit) | 145.00 |
| *c1ccc(Oc2ccccc2Oc2ccc(N3C(=O)c4ccc(S(=O)(=O)c5ccc6c(c5)C(=O)N(*)C6=O)cc4C3=O)cc2C(F)(F)F)c(C(F)(F)F)c1 (repeat unit) | 255.00 |
| *=Nc1ccc(Oc2ccc(C(c3ccc(Oc4ccc(/N=C5/OC(=O)c6cc7c(cc65)C(=*)OC7=O)cc4)cc3)(C(F)(F)F)C(F)(F)F)cc2)cc1 (repeat unit) | 287.00 |
| *CC(*)C(=O)OC1CCCCCCCCCCC1 (repeat unit) | 37.00 |
| *c1ccc2c(c1)C(=O)N(c1ccc(Oc3ccc(C(c4ccc(Oc5ccc(N6C(=O)c7ccc(C(*)(C(F)(F)F)C(F)(F)F)cc7C6=O)cc5)cc4)(C(F)(F)F)C(F)(F)F)cc3)cc1)C2=O (repeat unit) | 247.00 ± 16 |
| *c1ccc(Oc2ccc(C(C)(C)c3ccc(Oc4ccc(-c5nnc(*)n5-c5ccccc5)cc4)cc3)cc2)cc1 (repeat unit) | 207.00 |
| *Oc1ccc(C(C)(C)c2cccc(C(C)(C)c3ccc(Oc4ccc(C(=O)Nc5ccc(NC(=O)c6ccc(*)cc6)cc5)cc4)cc3)c2)cc1 (repeat unit) | 154.00 |

| Structure (SMILES) | glass transition temperature [°C] |
| --- | --- |
| *Nc1ccc(C(c2ccc(NC(=O)c3cccc(C(*)=O)c3)cc2)(P2(=O)Oc3ccccc3-c3ccccc32)P2(=O)Oc3ccccc3-c3ccccc32)cc1 (repeat unit) | 230.00 |
| *O[Si](C)(C)O[Si](C)(C)O[Si](C)(C)O[Si](C)(C)O[Si](C)(C)O[Si](C)(C)Oc1c(*)c2ccccc2c2ccccc12 (repeat unit) | -68.00 |
| *Oc1ccc(OC(=O)c2cc(OCCCCCCCCCOCC3CCCN3c3ccc([N+](=O)[O-])cc3)c(C(*)=O)cc2OCCCCCCCCCOCC2CCCN2c2ccc([N+](=O)[O-])cc2)cc1 (repeat unit) | 34.00 |
| *c1ccc(-n2c(=O)c3cc4c(=O)n(*)c(=O)c4cc3c2=O)c(S(=O)(=O)[O][Na])c1 (repeat unit) | 227.00 |
| *Nc1ccc(C2(c3ccc(NC(=O)c4ccc(C(*)=O)cc4)cc3)c3ccccc3-c3ccccc32)cc1 (repeat unit) | 319.00 |
| *c1ccc2oc(-c3ccc(C(c4ccccc4)(c4ccc(-c5nc6cc(C(*)(c7ccccc7)C(F)(F)F)ccc6o5)cc4)C(F)(F)F)cc3)nc2c1 (repeat unit) | 330.00 |
| *CC(*)C(=O)OCCC (repeat unit) [Poly(n-propyl acrylate) ] | -41.33 ± 4 |
| *CCOCCOCCOC(=O)NCCCCCCNC(=O)O* (repeat unit) | -6.50 |
| *CCCCCCCCCCOC(=O)O* (repeat unit) | -37.00 |
| *C(=O)OCCN(CCOC(=O)c1ccc2c(c1)C(=O)N(c1cccc(N3C(=O)c4ccc(*)cc4C3=O)c1)C2=O)c1ccc(/N=N/c2ccc([N+](=O)[O-])cc2)cc1 (repeat unit) | 210.00 |
| *C(=O)c1cc(C(=O)c2ccc3c(c2)C(=O)N(c2ccc(Oc4ccc(S(=O)(=O)c5ccc(Oc6ccc(N7C(=O)c8ccc(*)cc8C7=O)cc6)cc5)cc4)cc2)C3=O)cc(C(C)(C)C)c1 (repeat unit) | 254.50 |
| *c1ccc(Oc2cccc(N3C(=O)c4ccc([Si](C)(C)O[Si](C)(C)c5ccc6c(c5)C(=O)N(c5cccc(Oc7ccc(-c8nnc(*)o8)cc7)c5)C6=O)cc4C3=O)c2)cc1 (repeat unit) | 165.00 |
| *O[Si](C)(CCC(F)(F)F)CCC(F)(F)C(F)(F)C(F)(F)C(F)(F)C(F)(F)C(F)(F)C(F)(F)C(F)(F)CC[Si](*)(C)CCC(F)(F)F (repeat unit) | -28.00 |
| *c1ccc(C(=O)OCCCCCCCCCCCCOC(=O)c2ccc(-c3nnc(*)s3)cc2)cc1 (repeat unit) | 68.00 |
| *C(=O)c1ccc2c(c1)C(=O)N(c1ccc(C(=O)c3cccc(C(=O)c4ccc(N5C(=O)c6ccc(*)cc6C5=O)cc4)c3)cc1)C2=O (repeat unit) | 276.00 |
| *Oc1ccc(C(=O)Nc2ccc(S(=O)(=O)c3ccc(NC(=O)c4ccc(Oc5nc(*)nc(Sc6ccccc6)n5)cc4)cc3)cc2)cc1 (repeat unit) | 310.00 |
| *CCCCCCCCCCOc1ccc(CCc2ccc(O*)cc2C)cc1 (repeat unit) | -3.00 |
| *CC(*)C(=O)Nc1ccccc1Cl (repeat unit) | 63.00 |
| *Sc1ccc(*)cc1 (repeat unit) [Poly[thio(p-phenylene)] ] | 87 ± 2.2 |
| *CC(O)COc1ccc(C(C)(C)c2ccc(OCC(O)COc3ccc(C(=O)Nc4ccc(O*)cc4)cc3)cc2)cc1 (repeat unit) | 127.00 |
| *CC(*)(CC(=O)Oc1ccc(OC)cc1)C(=O)Oc1ccc(OC)cc1 (repeat unit) | 119.50 |
